Results reported in BigSolDB 2.1.

Cc1cnc(NC(=O)C2=C(O)c3ccccc3S(=O)(=O)N2C)s1
solubility (mole fraction)
Settings | 288.15 K | 293.15 K | 298.15 K | 303.15 K | 308.15 K
in ethanol | 2.2e-05 | 2.55e-05 | 3.2e-05 | 3.95e-05 | 5.3e-05
in ethylene glycol | 2.53e-05 | 2.59e-05 | 3.02e-05 | 2.91e-05 | 3.06e-05
in propylene glycol | 4.49e-05 | 4.52e-05 | 4.74e-05 | 5.6e-05 | 6.61e-05
in water | 2e-07 | 3e-07 | 4e-07 | 9e-07 | 1.1e-06
